Test results reported in ChEMBL document CHEMBL1155613, “Urinary metabolites of gallic acid in rats and their radical-scavenging effects on 1,1-diphenyl-2-picrylhydrazyl radical” (J Nat Prod, 2000).

Test system: Radical scavenging activity
Experiment: Antioxidant activity assessed as DPPH free radical scavenging activity
Type: functional

Row | EC50 [µM] | Structure (SMILES)
1 | > 100 | COc1c(O)cc(C(=O)O)cc1OS(=O)(=O)O
2 | > 100 | COc1c(O)cc(C(=O)O)cc1O
3 | > 100 | COc1c(O)cccc1O[C@@H]1O[C@H](C(=O)O)[C@@H](O)[C@H](O)[C@H]1O
4 | 19.9 | Cc1c(C)c2c(c(C)c1O)CCC(C)(CCCC(C)CCCC(C)CCCC(C)C)O2 (racemic) [alpha-TOCHOPHEROL]
5 | 99.6 | COc1c(O)cccc1O [2-METHOXYRESORCINOL]
6 | 16.6 | O=C1O[C@H]([C@@H](O)CO)C(O)=C1O [ASCORBIC ACID]
7 | 4.2 | Oc1cccc(O)c1O [PYROGALLOL]

Row | Structure (SMILES) | EC50 [µM]
8 | O=C(O)c1cc(O)c(O)c(O)c1 [GALLIC ACID] | 4.2
